Data on three molecules can be found in PMC12484987 (Scientific Reports, 2025).

Data set [1] concerns the target T1, HIV-1 RT (Human immunodeficiency virus type 1 group M subtype B, UniProt P04585). The note with it: quinolines of the previous publication, cited from earlier work.
The test system of data set [2] is MOLT-3 (Acute lymphoblastic leukemia). The note with it: read-out: IC50 cytotoxicity; cited from earlier work.
In data set [3] the test system is HeLa (Cervical carcinoma). The note with it: read-out: IC50 cytotoxicity; cited from earlier work.
Data set [4] relates to HL-60 (promyeloblast). The note with it: read-out: IC50 cytotoxicity; cited from earlier work.
For data set [5], the system named is HepG2 (Hepatocarcinoma). Particulars: HepG2, at maximum tested concentration of 50 µg/mL.
For data set [6], the system named is MOLT-3 (Acute lymphoblastic leukemia). Particulars: MOLT-3, at maximum tested concentration of 50 µg/mL.
The test system of data set [7] is HuCCA-1 (Cholangiocarcinoma). The note with it: HuCCA-1, at maximum tested concentration of 50 µg/mL.
The subject of data set [8] is A549 (Lung carcinoma). Particulars: A549, at maximum tested concentration of 50 µg/mL.
Data set [9] has as its system MRC-5 (normal embryonic lung cell). The note with it: MRC-5, at maximum tested concentration of 50 µg/mL.
In data set [10] the test system is MDA-MB-231 (Hormone-independent breast cancer). Particulars: MDA-MB-231, at maximum tested concentration of 50 µg/mL.
The subject of data set [11] is S102 (Thai liver cancer). The note with it: S102, at maximum tested concentration of 50 µg/mL.
Data set [12] deals with HeLa (Cervical carcinoma). Particulars: HeLa, at maximum tested concentration of 50 µg/mL.
Data set [13] relates to T47-D (Hormone-dependent breast cancer). The note with it: T47-D, at maximum tested concentration of 50 µg/mL.
Data set [14] deals with H69AR (Lung cancer, multidrug resistance). The note with it: H69AR, at maximum tested concentration of 50 µg/mL.
Data set [15] relates to HL-60 (promyeloblast). Particulars: HL-60, at maximum tested concentration of 50 µg/mL.
The test system of data set [16] is HepG2 (Hepatocarcinoma). As to the kind of experiment: cells. The note with it: Homo sapiens, HepG2, 48 h, read-out: IC50 cytotoxic activity.
The subject of data set [17] is MOLT-3 (Acute lymphoblastic leukemia). As to the kind of experiment: cells. Particulars: Homo sapiens, MOLT-3, 48 h, read-out: IC50 cytotoxic activity.
The subject of data set [18] is HuCCA-1 (Cholangiocarcinoma). The data set can be described thus: cells. The note with it: Homo sapiens, HuCC-A1, 48 h, read-out: IC50 cytotoxic activity.
The subject of data set [19] is A549 (Lung carcinoma). The data set can be described thus: cells. Particulars: Homo sapiens, A549, 48 h, read-out: IC50 cytotoxic activity.
Data set [20] relates to MDA-MB-231 (Hormone-independent breast cancer). The data set can be described thus: cells. The note with it: Homo sapiens, MDA-MB-231, 48 h, read-out: IC50 cytotoxic activity.
In data set [21] the test system is S102 (Thai liver cancer). As to the kind of experiment: cells. Particulars: Homo sapiens, 48 h, read-out: IC50 cytotoxic activity.
The subject of data set [22] is HeLa (Cervical carcinoma). The data set can be described thus: cells. The note with it: Homo sapiens, 48 h, read-out: IC50 cytotoxic activity.
In data set [23] the test system is T47-D (Hormone-dependent breast cancer). The data set can be described thus: cells. The note with it: Homo sapiens, T47D, 48 h, read-out: IC50 cytotoxic activity.
In data set [24] the test system is H69AR (Lung cancer, multidrug resistance). As to the kind of experiment: cells. Particulars: Homo sapiens, 48 h, read-out: IC50 cytotoxic activity.
The subject of data set [25] is HL-60 (promyeloblast). The data set can be described thus: cells. The note with it: Homo sapiens, HL-60, 48 h, read-out: IC50 cytotoxic activity.
Data set [26] in a line: in vitro. Particulars: human, MRC-5 cells (normal embryonic lung cells).
In data set [27] the target is T1, HIV-1 RT. The data set can be described thus: HIV-1 RT inhibition assay. It is filed as biochemical.

The structures appear in SMILES notation. Where “and” joins values, the source holds several entries; their conditions need not be identical. Equal entries are not always repeated. Where two headings read alike, the source gives them in different places. Bounds are passed on as bounds.

Usually IC50 stands for the concentration that inhibits the measured activity by half. As for `Cc1cc(C=O)cc(C)c1Oc1cc(Nc2ccc(C#N)cn2)nc2ccccc12` [4-(2’,6’-dimethyl-4’-formylphenoxy)−2-(5’’-cyanopyridin-2’’ylamino)quinoline], in data set [1], the “percentage inhibition against HIV-1 RT” value is 44% and 44.5%. The IC50 was 1.93 µM in [1] (read-out: IC50 against HIV-1 RT), 12.7 µM in [2], 25.7 µM in data set [3] and 20.5 µM in data set [4].

For the molecule `Cc1ccnc2c1NC(=O)c1cccnc1N2C1CC1` [NVP, nevirapine, reference compound], the Percentage cytotoxicity is recorded as 15% in [5]; 29% in [6]; 11% in data set [7]; 18% in data set [8]; 1% in data set [9]; 9% in data set [10]. Moreover, the Percentage cytotoxicity in data set [11] is 3%; in [12] it was 34%; in data set [13], 14%; in data set [14] it was 8%; in data set [15], 3%. The half-inhibitory concentration (IC50) in [16], in data set [17], in [18], in data set [19], in data set [20] and in data set [21] was above 188 µM throughout. In addition, the IC50 in [22], in data set [23], in data set [24] and in data set [25] was above 188 µM throughout. This molecule registered a half-inhibitory concentration (IC50) at 48 h in [26] above 188 µM.

`Cc1cc(/C=C/C#N)cc(C)c1Nc1ccnc(Nc2ccc(C#N)cc2)n1` [RPV, rilpivirine, reference compound]: the IC50 in data set [27] was 0.063 µM; in [17], 4.3 ± 0.5 µM; in data set [19] it was above 137 µM. For the same molecule, the inhibition at 1 µM in data set [27] (read-out: Inhibitory activity (%) against HIV-1 RT) was 97.1%. For the same molecule, the Percentage cytotoxicity in [8] came to 42%; in [9], 14%. In data set [26], this molecule showed an IC50 at 48 h above 137 µM.
